# Assay results from patent publication US11548875B2, “Inhibitor compounds for male contraception” (University of Washington, priority 2018, dated 2023).
# Where a name gives a salt, the structure may show the parent alone. Read-outs that look alike come from different tables or passages of the source.
# Tests used:
# [1] = molecular target: T1, ALDH1A2 (Homo sapiens, UniProt O94788); assay: Cell-based enzyme assay, retinoic acid production in ALDH1A2/H1299 cells
# T1 sequence (O94788 1-518): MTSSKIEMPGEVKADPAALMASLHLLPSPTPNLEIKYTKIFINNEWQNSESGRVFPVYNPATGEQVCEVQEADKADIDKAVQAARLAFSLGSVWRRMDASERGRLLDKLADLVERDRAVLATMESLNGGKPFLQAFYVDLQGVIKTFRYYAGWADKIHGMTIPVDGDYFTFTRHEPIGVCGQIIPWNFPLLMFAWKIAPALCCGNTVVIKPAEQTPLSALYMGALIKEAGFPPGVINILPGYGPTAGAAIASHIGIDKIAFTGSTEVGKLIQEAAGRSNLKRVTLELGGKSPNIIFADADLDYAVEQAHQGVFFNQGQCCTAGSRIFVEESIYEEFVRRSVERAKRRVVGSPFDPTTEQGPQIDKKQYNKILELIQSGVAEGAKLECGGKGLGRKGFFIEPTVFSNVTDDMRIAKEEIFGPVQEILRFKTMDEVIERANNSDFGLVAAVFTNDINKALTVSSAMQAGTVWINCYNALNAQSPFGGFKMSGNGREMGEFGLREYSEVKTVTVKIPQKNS
# How it was run: (§1)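 ALDH1A1- or ALDH1A2-stably transfected H1299 cells grown to confluence, then treated 20 h in serum-free RPMI-1640 with 2 μM all-trans-retinal plus varying inhibitor concentrations at 37 °C. Retinoic acid in cells and media quantified; inhibition from RA levels with vs without inhibitor.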
# [2] = molecular target: T2, ALDH1A1 (Homo sapiens, UniProt P00352); assay: Cell-based enzyme assay, retinoic acid production in ALDH1A1/H1299 cells
# T2 sequence (P00352 1-501): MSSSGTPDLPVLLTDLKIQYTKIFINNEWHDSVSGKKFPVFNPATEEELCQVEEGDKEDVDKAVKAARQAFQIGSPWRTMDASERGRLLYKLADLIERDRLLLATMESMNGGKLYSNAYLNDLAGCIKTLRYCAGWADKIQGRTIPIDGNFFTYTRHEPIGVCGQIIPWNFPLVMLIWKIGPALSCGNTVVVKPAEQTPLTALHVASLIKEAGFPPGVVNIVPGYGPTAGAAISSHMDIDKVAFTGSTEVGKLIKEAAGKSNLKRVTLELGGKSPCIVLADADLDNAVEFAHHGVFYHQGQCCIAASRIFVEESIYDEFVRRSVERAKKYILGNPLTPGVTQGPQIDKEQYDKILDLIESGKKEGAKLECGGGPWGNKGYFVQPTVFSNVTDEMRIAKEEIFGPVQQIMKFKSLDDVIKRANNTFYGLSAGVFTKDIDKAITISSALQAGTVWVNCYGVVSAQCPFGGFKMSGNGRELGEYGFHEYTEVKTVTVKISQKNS
# How it was run: as §1
# [3] = molecular target: T1, ALDH1A2; assay: Inhibitor screening using purified enzymes: ALDH1A2 activity, retinoic acid production by HPLC (5 uM initial screen, then IC50); type: biochemical; design: histidine-tag (C); made in house; host or cells: bacterial expression (pET28 vector, IPTG induction); conditions: purified enzyme
# How it was run: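 Purified His-tagged human enzymes in 10 mM HEPES pH 8.0, 150 mM KCl, 2 mM EDTA with 2 mM NAD, all-trans-retinal substrate; retinoic acid quantified by HPLC. ALDH1A2 initial screen: 1 μg enzyme, 5 μM retinal, 5 μM inhibitor, 15 min, 37° C; IC50 runs: 0.5 μg enzyme, 0.5 μg retinal, 5 min, 37° C.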
Compound,EC50 ([1]; cell-based) [µM],EC50 ([2]; cell-based) [µM],IC50 [3] [µM],EC50 [1] [µM],EC50 [2] [µM]
3-(4-Acryloylphenyl)-1-phenyl-1H-pyrazole-4-carbaldehyde [Compound 309],0.87,0.73,0.005,–,–
3-{4-[(Chloroacetyl)amino]phenyl}-N-(3-fluorophenyl)-1-phenyl-1H-pyrazole-4-carboxamide [Compound 294],< 0.005,< 0.005,0.025,–,–
O=Cc1cn(-c2ccccc2)nc1-c1ccc(O)cc1 [Cmpd 34],0.798,0.469,1.73,–,–
"CS(=O)(=O)c1ccc(-c2nn(-c3ccccc3)cc2C(=O)Nc2cccc(F)c2)cc1 [Compound 178, 3-(4-(Methylsulfonyl)phenyl)-N-(3-fluorophenyl)-1-phenyl-1H-pyrazole-4-carboxamide]",0.065,5.5,0.192,–,–
"CS(=O)(=O)c1ccc(-c2nn(-c3ccccc3)cc2C(=O)Nc2cccc(O)c2)cc1 [Compound 211, 3-(4-(Methylsulfonyl)phenyl)-N-(3-hydroxyphenyl)-1-phenyl-1H-pyrazole-4-carboxamide]",0.12,2,0.081,–,–
"CS(=O)(=O)c1ccc(-c2nn(-c3ccccc3)cc2C(=O)Nc2cccc(Cl)c2)cc1 [Compound 219, 3-(4-(Methylsulfonyl)phenyl)-N-(3-chlorophenyl)-1-phenyl-1H-pyrazole-4-carboxamide]",0.11,> 20,0.606,–,–
"CCS(=O)(=O)c1ccc(-c2nn(-c3ccccc3)cc2C(=O)Nc2cccc(F)c2)cc1 [Compound 223, 3-(4-(Ethylsulfonyl)phenyl)-N-(3-fluorophenyl)-1-phenyl-1H-pyrazole-4-carboxamide]",0.088,1.3,0.208,–,–
"CS(=O)(=O)c1ccc(-c2nn(-c3ccccc3)cc2C(=O)Nc2cccc(F)c2O)cc1 [Compound 231, N-(3-Fluoro-2-hydroxyphenyl)-3-[4-(methylsulfonyl)phenyl]-1-phenyl-1H-pyrazole-4-carboxamide]",0.069,> 20,0.323,–,–
"CS(=O)(=O)c1ccc(-c2nn(-c3ccc(Cl)cc3)cc2C(=O)Nc2ccccc2O)cc1 [Compound 233, N-(2-Hydroxyphenyl)-3-[4-(methylsulfonyl)phenyl]-1-(4-chloropheny)-1H-pyrazole-4-carboxamide]",0.055,13.2,0.795,–,–
"CS(=O)(=O)c1ccc(-c2nn(-c3ccc(F)cc3)cc2C(=O)Nc2cccc(F)c2)cc1 [Compound 241, N-(3-Fluorophenyl)-3-[4-(methylsulfonyl)phenyl]-1-(4-fluorophenyl)-1H-pyrazole-4-carboxamide]",0.056,10.9,0.092,–,–
"CS(=O)(=O)c1ccc(-c2nn(-c3ccc(OC(F)(F)F)cc3)cc2C(=O)Nc2cccc(F)c2)cc1 [Compound 258, N-(3-Fluorophenyl)-1-(4-trifluoromethoxypheny)-3-[4-(methylsulfonyl)phenyl]-1H-pyrazole-4-carboxamide]",0.051,26.4,0.112,–,–
"CS(=O)(=O)c1ccc(-c2nn(-c3ccc(C#N)cc3)cc2C(=O)Nc2cccc(C(F)(F)F)c2)cc1 [Compound 262, 1-(4-Cyanophenyl)-N-(3-trifluoromethylphenyl)-3-[4-(methylsulfonyl)phenyl]-1H-pyrazole-4-carboxamide]",0.016,> 20,0.352,–,–
"CS(=O)(=O)c1ccc(-c2nn(-c3cccc(F)c3)cc2C(=O)Nc2cccc(C(F)(F)F)c2)cc1 [Compound 266, 1-(3-Fluorophenyl)-N-(3-trifluoromethylphenyl)-3-[4-(methylsulfonyl)phenyl]-1H-pyrazole-4-carboxamide]",0.354,> 20,0.029,–,–
"CS(=O)(=O)c1ccc(-c2nn(-c3cccc(C#N)c3)cc2C(=O)Nc2cccc(F)c2)cc1 [Compound 268, 1-(3-Cyanophenyl)-N-(3-fluorophenyl)-3-[4-(methylsulfonyl)phenyl]-1H-pyrazole-4-carboxamide]",0.026,2.43,0.84,–,–
"CS(=O)(=O)c1ccc(-c2nn(-c3cccc(C#N)c3)cc2C(=O)Nc2ccc(F)c(F)c2)cc1 [Compound 269, 1-(3-Cyanophenyl)-N-(3,4-difluorophenyl)-3-[4-(methylsulfonyl)phenyl]-1H-pyrazole-4-carboxamide]",0.045,3.56,0.238,–,–
"N#Cc1ccc(-n2cc(C(=O)Nc3cccc(F)c3)c(-c3ccc(NC(=O)C(Cl)Cl)cc3)n2)cc1 [Compound 316a, 3-(4-Dichloroacetamidophenyll)-N-(3-fluorophenyl)-1-(4-cyanophenyl)-1H-pyrazole-4-carboxamide]",0.013,0.18,0.037,–,–
"CCc1ccc(C(=O)N2CCN(c3ccc([N+](=O)[O-])c(N4CCCC4)c3)CC2)s1 [Compound 323, {4-[4-Nitro-3-(pyrrolidin-1-yl)phenyl]piperazin-1-yl}(5-ethylthiophen-2-yl)methanone]",–,–,0.103,0.457,0.195
"CCOc1ccsc1C(=O)N1CCN(c2ccc([N+](=O)[O-])c(N3CCCC3)c2)CC1 [Compound 326, {4-[4-Nitro-3-(pyrrolidin-1-yl)phenyl]piperazin-1-yl}(3-ethoxythiophen-2-yl)methanone]",–,–,0.058,0.11,0.44
"Cc1cc(C(=O)N2CCN(c3ccc([N+](=O)[O-])c(N4CCCC4)c3)CC2)sc1C [Compound 327, {4-[4-Nitro-3-(pyrrolidin-1-yl)phenyl]piperazin-1-yl}(4,5-dimethylthiophen-2-yl)methanone]",–,–,0.313,0.862,> 0.5
"COc1ccsc1C(=O)N1CCN(c2ccc([N+](=O)[O-])c(N3CCCC3)c2)CC1 [Compound 329, {4-[4-Nitro-3-(pyrrolidin-1-yl)phenyl]piperazin-1-yl}(3-methoxythiophen-2-yl)methanone]",–,–,0.079,< 0.5,< 0.5
"Nc1ccsc1C(=O)N1CCN(c2ccc([N+](=O)[O-])c(N3CCCC3)c2)CC1 [Compound 331, {4-[4-Nitro-3-(pyrrolidin-1-yl)phenyl]piperazin-1-yl}(3-aminothiophen-2-yl)methanone hydrochloride]",–,–,0.062,0.121,0.088
CC(=O)Nc1ccsc1C(=O)N1CCN(c2ccc([N+](=O)[O-])c(N3CCCC3)c2)CC1 [Compound 332],–,–,0.388,0.437,0.413
"O=C(c1ccc(F)s1)N1CCN(c2ccc([N+](=O)[O-])c(N3CCCC3)c2)CC1 [Compound 334, {4-[4-Nitro-3-(pyrrolidin-1-yl)phenyl]piperazin-1-yl}(5-fluorothiophen-2-yl)methanone]",–,–,1.33,0.377,0.26
"O=C(c1ccccc1)N1CCN(c2ccc([N+](=O)[O-])c(N3CCCC3)c2)CC1 [Compound 339, Phenyl-1-{4-[4-nitro-3-(pyrrolidin-1-yl)phenyl]piperazin-1-yl}methanone]",–,–,0.837,0.293,0.333
"O=C(c1cccc(Cl)c1)N1CCN(c2ccc([N+](=O)[O-])c(N3CCCC3)c2)CC1 [Compound 341, 3-Chlorophenyl-1-{4-[4-nitro-3-(pyrrolidin-1-yl)phenyl]piperazin-1-yl}methanone]",–,–,1.45,0.505,< 0.5
"O=C(c1ccc(Cl)cc1)N1CCN(c2ccc([N+](=O)[O-])c(N3CCCC3)c2)CC1 [Compound 342, 4-Chlorophenyl-1-{4-[4-nitro-3-(pyrrolidin-1-yl)phenyl]piperazin-1-yl}methanone]",–,–,4.56,0.966,0.468
